Reference: patent US20140193827A1 (TEVA PHARMACEUTICAL INDUSTRIES, LTD., priority 2013, published 2014)

System: GA-primed murine splenocytes
Experiment: Tolerance method for assessing process variability

Question: Which results are given for glatiramer acetate [GA]?
Answer: AVG expression CD83 (probe ILMN_2865016): 12.24; AVG expression GLDC (probe ILMN_2873750): 6.771; AVG expression LYZ (probe ILMN_2878071): 10.5; AVG expression TMEM66 (probe ILMN_2881296): 9.558; AVG expression LRRK2 (probe ILMN_2883267): 9.942; AVG expression PIRA3 (probe ILMN_2883326): 7.604; AVG expression CCR5 (probe ILMN_2888191): 7.88; AVG expression NSG2 (probe ILMN_2890515): 6.466; AVG expression RGS1 (probe ILMN_2897891): 8.707; AVG expression ATP2A3 (probe ILMN_2900462): 10.34; AVG expression GM484 (probe ILMN_2903169): 7.045; AVG expression GADD45G (probe ILMN_2903945): 12.68; AVG expression ICOS (probe ILMN_2906430): 9.445; AVG expression FCGRT (probe ILMN_2917497): 7.496; AVG expression SCD2 (probe ILMN_2919259): 7.493; AVG expression SLC25A1 (probe ILMN_2919263): 9.787; AVG expression OSM (probe ILMN_2919411): 9.631; AVG expression CASP6 (probe ILMN_2923865): 9.522; AVG expression MPO (probe ILMN_2925094): 6.333; AVG expression SIGLECH (probe ILMN_2928599): 6.936; AVG expression 9130211I03RIK (probe ILMN_2930552): 7.36; AVG expression IL4 (probe ILMN_2931334): 8.425; AVG expression TPI1 (probe ILMN_2932359): 11.19; AVG expression LYZS (probe ILMN_2939681): 6.97; AVG expression DGKA (probe ILMN_2940446): 10.5; AVG expression 4933439C20RIK (probe ILMN_2944601): 9.853; AVG expression HP (probe ILMN_2944824): 8.175; AVG expression RAgenericEF4 (probe ILMN_2945940): 7.203; AVG expression CBX7 (probe ILMN_2947234): 7.729; AVG expression ECM1 (probe ILMN_2947526): 10.05; AVG expression NOC4L (probe ILMN_2957862): 9.678; AVG expression CYP27A1 (probe ILMN_2960108): 6.166; AVG expression CYP27A1 (probe ILMN_2960114): 6.441; AVG expression H2-M2 (probe ILMN_2964185): 6.649; AVG expression CREM (probe ILMN_2964986): 7.2; AVG expression FXYD5 (probe ILMN_2967266): 11.61; AVG expression AMPD1 (probe ILMN_2971142): 6.076; AVG expression FCRLA (probe ILMN_2971171): 10.49; AVG expression BLK (probe ILMN_2976440): 10.05; AVG expression BLK (probe ILMN_2976441): 10.82; AVG expression MAN2A2 (probe ILMN_2977791): 6.779; AVG expression TMED8 (probe ILMN_2979248): 8.811; AVG expression D12ERTD553E (probe ILMN_2983525): 9.137; AVG expression EMP3 (probe ILMN_2984744): 11.52; AVG expression SLC15A3 (probe ILMN_2987709): 10.2; AVG expression STFA1 (probe ILMN_2988931): 7.963; AVG expression CLEC4N (probe ILMN_2993314): 7.76; AVG expression OBFC2A (probe ILMN_2996904): 7.798; AVG expression IL27RA (probe ILMN_3002095): 10.52; AVG expression UNC84B (probe ILMN_3004864): 10.87; AVG expression PPA1 (probe ILMN_3005441): 12.45; AVG expression ASNS (probe ILMN_3006123): 7.885; AVG expression MLKL (probe ILMN_3006767): 8.575; AVG expression ABHD14B (probe ILMN_3007862): 7.744; AVG expression FAM169B (probe ILMN_3014674): 10.41; AVG expression CYP4F18 (probe ILMN_3018445): 6.343; AVG expression KIF1B (probe ILMN_3034877): 7.209; AVG expression GBP2 (probe ILMN_3047389): 7.888; AVG expression GLIPR2 (probe ILMN_3053593): 11.06; AVG expression WARS (probe ILMN_3077377): 7.701; AVG expression AHNAK (probe ILMN_3079919): 7.509; AVG expression CYP4F18 (probe ILMN_3090207): 7.952; AVG expression PKIB (probe ILMN_3094853): 9.029; AVG expression TNFRSF9 (probe ILMN_3103746): 8.744; AVG expression TIMP1 (probe ILMN_3103896): 6.734; AVG expression CETN4 (probe ILMN_3105936): 7.334; AVG expression TXNIP (probe ILMN_3112873): 10.81; AVG expression HSD11B1 (probe ILMN_3115917): 8.516; AVG expression CHI3L3 (probe ILMN_3117876): 7.418; AVG expression LMNA (probe ILMN_3121891): 8.355; AVG expression GBP2 (probe ILMN_3122961): 13.72; AVG expression CD27 (probe ILMN_3128992): 10.96; AVG expression BC004728 (probe ILMN_3130403): 9.315; AVG expression BCAT1 (probe ILMN_3131478): 9.235; AVG expression USP18 (probe ILMN_3131679): 9.931; AVG expression YPEL3 (probe ILMN_3132898): 12.77; AVG expression ANXA3 (probe ILMN_3135781): 7.965; AVG expression SESN1 (probe ILMN_3136744): 9.838; AVG expression LIF (probe ILMN_3137287): 6.404; AVG expression LIF (probe ILMN_3137291): 6.545; AVG expression BTBD11 (probe ILMN_3139253): 6.574; AVG expression SEPP1 (probe ILMN_3141048): 6.844; AVG expression CXCL10 (probe ILMN_3142803): 8.707; AVG expression B3GNT8 (probe ILMN_3149776): 7.035; AVG expression NACC2 (probe ILMN_3153982): 7.11; AVG expression WARS (probe ILMN_3156343): 8.996; AVG expression SYTL3 (probe ILMN_3157081): 7.084; AVG expression PRR7 (probe ILMN_3162239): 7.209
